For assay [1], the target named is T1, Agg-1 (Homo sapiens, UniProt O75173).
T1 sequence (O75173 213-837): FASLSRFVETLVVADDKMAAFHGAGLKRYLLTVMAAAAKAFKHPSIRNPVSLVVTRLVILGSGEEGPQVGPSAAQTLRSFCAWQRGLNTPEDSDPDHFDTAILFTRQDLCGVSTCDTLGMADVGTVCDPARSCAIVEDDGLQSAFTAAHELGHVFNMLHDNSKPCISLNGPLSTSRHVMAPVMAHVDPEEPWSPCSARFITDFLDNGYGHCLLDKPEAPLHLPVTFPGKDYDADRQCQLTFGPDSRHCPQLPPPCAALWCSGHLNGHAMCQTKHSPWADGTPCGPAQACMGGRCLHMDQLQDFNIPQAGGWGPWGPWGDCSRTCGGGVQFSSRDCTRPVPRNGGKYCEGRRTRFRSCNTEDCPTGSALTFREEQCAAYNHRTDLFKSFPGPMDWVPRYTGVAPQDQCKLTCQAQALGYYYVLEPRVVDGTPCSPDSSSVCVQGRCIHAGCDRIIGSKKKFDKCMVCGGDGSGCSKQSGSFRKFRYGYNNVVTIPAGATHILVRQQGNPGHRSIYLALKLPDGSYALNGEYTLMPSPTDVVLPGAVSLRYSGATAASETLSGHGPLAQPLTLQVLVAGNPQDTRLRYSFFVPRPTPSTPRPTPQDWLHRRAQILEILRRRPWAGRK
Put plainly: Agg-1 FRET assay. The settings on record: for inhibition at 11 µM: @ 11000 nM; for inhibition at 22.2 µM: @ 22200 nM; for inhibition at 22 µM: @ 22000 nM. Format: biochemical. The text has this:
The Agg-1/Agg-2 FRET data for N-[(8-hydroxyquinolin-2-yl)(phenyl)methyl]-2-phenoxyacetamide and 2-{[(phenoxyacetyl)amino](phenyl)methyl}quinolin-8-yl phenoxyacetate is presented in Table 1.

The target in assay [2] is T2, recombinant human Aggrecanase-2 Agg2-Phe628 (Homo sapiens, UniProt Q9UNA0).
T2 sequence (Q9UNA0 262-628 limits assumed): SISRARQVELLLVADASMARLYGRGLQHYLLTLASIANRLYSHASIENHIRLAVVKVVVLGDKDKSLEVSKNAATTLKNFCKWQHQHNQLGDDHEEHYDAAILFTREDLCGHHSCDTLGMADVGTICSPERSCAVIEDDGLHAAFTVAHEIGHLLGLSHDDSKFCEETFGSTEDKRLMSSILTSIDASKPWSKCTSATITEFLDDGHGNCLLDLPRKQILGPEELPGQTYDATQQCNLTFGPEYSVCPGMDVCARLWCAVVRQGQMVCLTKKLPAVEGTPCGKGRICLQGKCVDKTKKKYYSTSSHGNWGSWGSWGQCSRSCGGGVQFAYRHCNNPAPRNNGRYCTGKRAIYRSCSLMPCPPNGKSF
Briefly: Aggrecanase 2 in vitro enzyme assay (Agg-2 FRET, quenched fluorescent peptide substrate). Format: biochemical. Set-up: purified recombinant human Aggrecanase-2 Agg2-Phe628 (MW=41,737); This is a truncated form of full-length human aggrecanase-2; made in house; host or cells: CHO cells. The settings on record: for Agg-2 FRET Median PCT INHIB: concentration not given. An outline of the steps: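 Continuous FRET assay with purified truncated human Aggrecanase-2 Agg2-Phe628 (CHO-expressed, 0.5 μg/ml final) and brevican-derived Abz/Dnp peptide (25 μM final) in 50 mM HEPES pH 7.5, 100 mM NaCl, 5 mM CaCl2, 0.1% CHAPS, 5% glycerol. Enzyme preincubated with compound before substrate; fluorescence (ex 340/em 420 nm) followed kinetically 40 min at 30 °C.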

Where [3] appears, read: read-out: Agg-2 FRET Median IC50.

Consider 22 molecules from patent US20080269213A1, “8-Hydroxyquinoline compounds and methods thereof” (Wyeth, priority 2006, published 2008).

The term IC50 denotes the concentration that inhibits the measured activity by half.

Values joined by “and” are separate entries in the source; they are usually repeats but may differ in a detail not shown here. Identical values can stand only once. Like-named read-outs stand apart in the source and are kept apart here.

Consider `O=C(NC(c1ccccn1)c1cc(Cl)c2cccnc2c1O)OCc1ccccc1` (centres unmarked) [Example 183, benzyl [(5-chloro-8-hydroxyquinolin-7-yl)(pyridin-2-yl)methyl]carbamate], for which the half-maximal inhibitory concentration (IC50) in assay [1] (read-out: Agg1 IC50) is > 67 µM; in assay [2] (read-out: Agg2 IC50) it was ~2.5 µM. In addition, the “Agg-2 FRET Median PCT INHIB” value in assay [2] is 50%.
For `O=C(COc1ccccc1)NC(c1cc(Cl)c2cccnc2c1O)c1ccnc2ccccc12` (centres unmarked) [N-[(5-chloro-8-hydroxyquinolin-7-yl)(quinolin-4-yl)methyl]-2-phenoxyacetamide], the inhibition at 11 µM in assay [1] (read-out: Agg1 %) turned out to be 34%. Further, in assay [2] (@ 2800 nM), the inhibition at 2.8 µM is 45%.
Consider `O=C(CNCc1ccncc1)NC(c1ccccc1)c1cc(Cl)c2cccnc2c1O` (centres unmarked) [Example 229, N[(5-chloro-8-hydroxyquinolin-7-yl)(phenyl)methyl]-N2-(pyridin-4-ylmethyl)glycinamide], for which the concentration for half-maximal inhibition (IC50) was > 67 µM in assay [1] (read-out: Agg1 IC50) and > 11 µM in assay [2] (read-out: Agg2 IC50). In addition, in assay [2], the “Agg-2 FRET Median PCT INHIB” value was 29%.
With `Cc1ccc2occ(C(NC(=O)COc3ccccc3)c3cc(Cl)c4cccnc4c3O)c(=O)c2c1` (centres unmarked) [N-[(5-chloro-8-hydroxyquinolin-7-yl)(6-methyl-4-oxo-4H-chromen-3-yl)methyl]-2-phenoxyacetamide], in assay [1] (@ 7400 nM, read-out: Agg1 %), the inhibition at 7.4 µM turned out to be 43%. Also, the IC50 in assay [2] (read-out: Agg2 IC50) was found to be 1.2 µM.
With `O=C(COc1ccccc1)NC(c1ccc(-n2cccn2)cc1)c1cc(Cl)c2cccnc2c1O` (centres unmarked) [Example 145, N-{(5-chloro-8-hydroxyquinolin-7-yl)[4-(1H-pyrazol-1-yl)phenyl]methyl}-2-phenoxyacetamide], the figures for the IC50 in assay [1] (read-out: Agg1 IC50) and in assay [2] (read-out: Agg2 IC50) were 5.8 µM and 1.2 µM, respectively.
On to `O=C(NC(c1ccccc1)c1cc(Cl)c2cccnc2c1O)OCc1ccccc1` (centres unmarked) [benzyl [(5-chloro-8-hydroxyquinolin-7-yl)(phenyl)methyl]carbamate], for which the IC50 is > 100 µM in assay [1] (read-out: Agg1 IC50) and > 67 µM in assay [2] (read-out: Agg2 IC50). The “Agg-2 FRET Median PCT INHIB” value in assay [2] was 46%.
As for `O=C(COc1ccccc1)N[C@H](c1ccccc1Cl)c1cc(Cl)c2cccnc2c1O` [N-[(S)-(5-chloro-8-hydroxyquinolin-7-yl)(2-chlorophenyl)methyl]-2-phenoxyacetamide], the inhibition at 22.2 µM in assay [1] (read-out: Agg1 %) was found to be 54%. Besides, the IC50 in assay [2] (read-out: Agg2 IC50) is 0.876 µM; in assay [2] (setting [3]) it was 0.876 µM and 1.34 µM.
`Nc1cc(C(NC(=O)COc2ccccc2)c2ccccc2)c(O)c2ncccc12` (centres unmarked) [N-[(5-amino-8-hydroxyquinolin-7-yl)(phenyl)methyl]-2-phenoxyacetamide]: the figures for the inhibition at 22.2 µM in assay [1] (read-out: Agg1 %) and in assay [2] (@ 22200 nM) were 57% and 50%, respectively.
Turning to `O=C(COc1ccccc1)NC(c1ccco1)c1cc(Cl)c2cccnc2c1O` (centres unmarked) [N-[(5-chloro-8-hydroxyquinolin-7-yl)(2-furyl)methyl]-2-phenoxyacetamide], in assay [1] (@ 67000 nM, read-out: Agg1 %), the inhibition at 67 µM is 51%. For the same molecule, the IC50 is 2.43 µM in assay [2] (read-out: Agg2 IC50); 3.9 µM and 2.43 µM in assay [2] (setting [3]).
In the case of `O=C(COc1ccccc1)NC(c1ccc(-c2csnn2)cc1)c1cc(Cl)c2cccnc2c1O` (centres unmarked) [Example 147, N-{(5-chloro-8-hydroxyquinolin-7-yl)[4-(1,2,3-thiadiazol-4-yl)phenyl]methyl}-2-phenoxyacetamide], the IC50 stood at 4.68 µM in assay [1] (read-out: Agg1 IC50), 1.07 µM in assay [2] (read-out: Agg2 IC50) and 1.07 µM in assay [2] (setting [3]).
With `O=C(COc1ccccc1)NC(c1cccc(Oc2ccc(Cl)cc2)c1)c1cc(Cl)c2cccnc2c1O` (centres unmarked) [Example 129, N-{(5-chloro-8-hydroxyquinolin-7-yl)[3-(4-chlorophenoxy)phenyl]methyl}-2-phenoxyacetamide], in assay [1] (read-out: Agg1 %), the inhibition at 22 µM was found to be 51%. Moreover, the inhibition at 11 µM in assay [2] (@ 11000 nM) was found to be 52%.
For the molecule `O=C(COc1ccccc1)NC(C1=CCCCC1)c1cc(Cl)c2cccnc2c1O` (centres unmarked) [N-[(5-chloro-8-hydroxyquinolin-7-yl)(cyclohex-1-en-1-yl)methyl]-2-phenoxyacetamide], the 50% inhibitory concentration (IC50) in assay [1] (read-out: Agg1 IC50) is 1 to 8 µM. Further, the inhibition at […] in assay [2] (@ 1900 nM) turned out to be 42%.
As for `O=C(COc1ccccc1)NC(c1ccccc1)c1ccc2cccc(OC(=O)COc3ccccc3)c2n1` (centres unmarked) [Example 277, 2-{[(phenoxyacetyl)amino](phenyl)methyl}quinolin-8-yl phenoxyacetate], the IC50 in assay [1] (read-out: FRET IC50 Agg-1) is 4 µM. For the same molecule, the inhibition at 200 µM in assay [2] (@ 200 (μM), read-out: Agg-2 FRET % (printed in FRET IC50 column)) stood at 52%.
As for `O=C(COc1ccccc1)NC(c1ccccc1Cl)c1cc(Cl)c2cccnc2c1O` (centres unmarked) [N-[(5-chloro-8-hydroxyquinolin-7-yl)(2-chlorophenyl)methyl]-2-phenoxyacetamide], the half-maximal inhibitory concentration (IC50) in assay [1] (read-out: Agg1 IC50) was > 22 µM; in assay [2] (read-out: Agg2 IC50), 1.55 µM; in assay [2] (setting [3]) it was 1.55 µM and 0.35 µM.
`O=C(COc1ccccc1)NC(c1cc(Cl)c2cccnc2c1O)c1cccc2cccnc12` (centres unmarked) [N-[(5-chloro-8-hydroxyquinolin-7-yl)(quinolin-8-yl)methyl]-2-phenoxyacetamide]: the inhibition at 22 µM in assay [1] (read-out: Agg1 %) was 55%. In addition, in assay [2] (read-out: Agg2 IC50), the 50% inhibitory concentration (IC50) was 2.2 µM.
Consider `CO/C(=C\c1ccccc1)C(NC(=O)COc1ccccc1)c1cc(Cl)c2cccnc2c1O` (centres unmarked) [N-[(2Z)-1-(5-chloro-8-hydroxyquinolin-7-yl)-2-methoxy-3-phenylprop-2-en-1-yl]-2-phenoxyacetamide], for which the inhibition at 11 µM in assay [1] (read-out: Agg1 %) was found to be 47%. The inhibition at […] in assay [2] (@ 2500 nM) worked out at 50%.
In the case of `Cn1nnc2cc(C(NC(=O)COc3ccccc3)c3cc(Cl)c4cccnc4c3O)ccc21` (centres unmarked) [Example 177, N-[(5-chloro-8-hydroxyquinolin-7-yl)(1-methyl-1H-1,2,3-benzotriazol-5-yl)methyl]-2-phenoxyacetamide], the half-inhibitory concentration (IC50) in assay [1] (read-out: Agg1 IC50) is > 20 µM; in assay [2] (read-out: Agg2 IC50), 1.3 µM; in assay [2] (setting [3]) it was 1.3 µM.
As to `CC1(C)CCc2cc(C(NC(=O)COc3ccccc3)c3cc(Cl)c4cccnc4c3O)ccc2O1` (centres unmarked) [Example 171, N-[(5-chloro-8-hydroxyquinolin-7-yl)(2,2-dimethyl-3,4-dihydro-2H-chromen-6-yl)methyl]-2-phenoxyacetamide], in assay [1] (@ 66700 nM, read-out: Agg1 %), the inhibition at 66.7 µM was determined as 55%. Further, the IC50 in assay [2] (read-out: Agg2 IC50) turned out to be 1.4 µM.
For `CN(C)c1ccc(C(NC(=O)COc2ccccc2)c2cc(Cl)c3cccnc3c2O)cc1` (centres unmarked) [Example 134, N-{(5-chloro-8-hydroxyquinolin-7-yl)[4-(dimethylamino)phenyl]methyl}-2-phenoxyacetamide], the inhibition at […] in assay [1] (@ 2500 nM, read-out: Agg1 %) worked out at 54%. Further, in assay [2] (read-out: Agg2 IC50), the IC50 was determined as 1.65 µM.
For `COc1ccc(C(NC(=O)Cc2ccccc2)c2cc(Cl)c3cccnc3c2O)cc1OCc1ccccc1` (centres unmarked) [N-[[3-(benzyloxy)-4-methoxyphenyl](5-chloro-8-hydroxyquinolin-7-yl)methyl]-2-phenylacetamide], the inhibition at […] worked out at 36% in assay [1] (@ 1200 nM, read-out: Agg1 %) and 47% in assay [2] (@ 1200 nM).
For the molecule `O=C(Cc1ccccc1)NC(c1ccc(F)cc1)c1cc(Cl)c2cccnc2c1O` (centres unmarked) [N-[(5-chloro-8-hydroxyquinolin-7-yl)(4-fluorophenyl)methyl]-2-phenylacetamide], the inhibition at 3.7 µM in assay [1] (@ 3700 nM, read-out: Agg1 %) was 33%. Further, the half-maximal inhibitory concentration (IC50) in assay [2] (read-out: Agg2 IC50) and in assay [2] (setting [3]) was 2.14 µM in each case.
With `O=C(COc1ccc2c(c1)OCO2)NC(c1ccccc1Cl)c1cc(Cl)c2cccnc2c1O` (centres unmarked) [Example 221, 2-(1,3-benzodioxol-5-yloxy)-N-[(5-chloro-8-hydroxyquinolin-7-yl)(2-chlorophenyl)methyl]acetamide], the half-maximal inhibitory concentration (IC50) in assay [1] (read-out: Agg1 IC50) is 7.4 to 20 µM; in assay [2] (read-out: Agg2 IC50), 1 µM.
